Structures are written as SMILES.

The subject of assay [1] is R15A or R15B. As to the kind of experiment: Selective binding towards R15A or R15B (based on SPR). Also on record: species or system human. As for the experimental part:
In one embodiment, the compounds of formula IB inhibit PPP1R15A and PPP1R15B. Inhibition of PPP1R15A and PPP1R15B can be determined from binding analysis. For example, binding can be analysed using SPR (surface plasmon resonance) to obtain KD values. A PPP1R15A and PPP1R15B inhibitor may be defined as a compound where the difference in KD values between R15A and R15B is no more than about 3 fold.
Small molecules were stored as 50 mM stock solutions in 100% DMSO. Prior to determining binding constants, serial dilutions of either 12 or 8 concentrations of the compounds were prepared in the running buffer in a 96-well plate. Prior to each compound dilution series the regulatory subunit, MBP-R15A^325-636-His or MBP-R15B^340-698-His, was diluted to 10 μM in the running buffer and captured on the bio-PP1c surface at a flow rate of 30 μl/min for 1 minute to form the holophosphatase complex on the sensor chip surface. This was followed by 1 minute stabilization period, to wash off any unspecific binding. Then, without regenerating the surface, the compound dilution series was injected onto the surface of the chip at a flow rate of 30 μl/min for 1 minute, followed by 2 minutes dissociation time. After each dilution series the surface was regenerated using 3 M NaCl for 90 seconds. After regeneration, SPR responses generally returned to base levels and the bio-PP1c surface was ready for the next compound dilution series. In order to be able to correct for small variations in DMSO concentration between samples, eight solvent samples ranging from 0.06 to 8% DMSO were injected every 50th cycle. The flow cell temperature was 10° C.
Sensorgrams were analyzed using the Biacore T200 evaluation software and the binding constants determined based on a steady-state model. Kinetic experiments are carried out using different concentrations of the compound and their respective equilibrium binding levels determined.

In assay [2] the target is T1, PPP1R15B-PP1 (Homo sapiens, UniProt Q5SWA1).
T1 construct: cDNAs encoding amino acids 325-636 of PPP1R15A and 340-698 of PPP1R15B were His-tagged and cloned into pMAL-c5x; made in house; host or cells: R15B: E. coli BL21-Gold (pMAL-c5x); PP1γ: Sf9 insect cells (baculovirus, pDW464)
As to the kind of experiment: SPR steady-state binding to R15B-PP1 holophosphatase. The note with it: SPR steady-state, MBP-R15B340-698-His captured on bio-PP1c, 10° C.; read-out: R15B (KD). As for the experimental part:
(§1) PPP1R15A^325-636 and PPP1R15B^340-698 were expressed and purified as follows: the cDNAs encoding amino acids 325-636 of PPP1R15A and 340-698 of PPP1R15B were His-tagged and cloned into pMAL-c5x. Recombinant PPP1R15A/B were expressed in BL21-Gold cells and purified by affinity chromatography on a HisTrap HP column (GE Healthcare), followed by a MBPTrap HP column (GE Healthcare). The proteins were analyzed on BOLT SDS-PAGE 4-12% Bis-Tris gels (Life Technologies) stained with SimplyBlue SafeStain (Life Technologies). cDNA encoding for human PP1γ was cloned into the baculovirus transfer vector pDW464 to add a biotin acceptor peptide (BAP). The vector also encodes for the E. coli biotin holoenzyme synthetase (BirA), so that BAP-tagged proteins can be biotinylated in vivo in Spodoptere frugiperda (Sf9) insect cells (Duffy et al., Anal. Biochem., 262, 122-128, 1998). The Bac-to-Bac baculovirus expression system (Life Technologies) was used to generate the recombinant bacmid DNA and Sf9 insect cells were used to amplify the viral stocks Cultures were harvested by centrifuging at 1,200 g for 15 minutes, cell pellets were resuspended in lysis buffer (50 mM Tris pH 7.4, 150 mM NaCl, 0.2% Triton, 5% Glycerol, 1 PiC tablet (Roche) per 50 ml and 0.2 mM PMSF) and followed by gentle sonication. The protein was first purified on a 5 ml HiTrap Q HP column (GE Healthcare) followed by a HiLoad 16/600 Superdex 200 column (GE Healthcare). The positive fractions confirmed by SDS-PAGE and western blot were pooled, concentrate to ˜1 μM and stored at −80° C.
(§2) A Biacore T200 (GE Healthcare) system was used for all experiments and biotinylated PP1 was captured using a Sensor Chip SA (GE Healthcare, catalog no BR-1005-31). The streptavidin coated surface was activated by 1 min injection with a solution of 50 mM NaOH and 1 M NaCl. Biotin-PP1 was diluted in the running buffer (50 mM Tris pH 7.5, 100 mM NaCl, 0.1 mM EGTA, 1 mM MnCl2, 0.05% Tween 20) and injected at approximately 300 nM concentration directly to streptavidin coated surface for 100 sec or to reach immobilization level of biotin-PP1 corresponding to ˜7000 RU. A blank immobilization was performed for one of the SA sensor chip surface to use as a reference.
(§3) With minor deviations, the same procedure and conditions were used in all binding experiments. Small molecules were stored as 50 mM stock solutions in 100% DMSO. Prior to determining binding constants, serial dilutions of either 12 or 8 concentrations of the compounds were prepared in the running buffer in a 96-well plate. Prior to each compound dilution series the regulatory subunit, R15A or R15B, was diluted to […] in the running buffer and captured on the biotin-PP1 surface, to form the holophosphatase complex on the sensor chip surface. Then, without regenerating the surface, the compound dilution series was injected onto the surface of the chip Sensorgrams were analyzed using the Biacore T200 evaluation software and the binding constants determined based on a steady-state model. Kinetic experiments are carried out using different concentrations of the compound and their respective equilibrium binding levels determined.
(§4) Surface Plasmon Resonance (SPR) was used to measure the binding affinity of compounds to the PPP1R15A/B-PP1 phosphatase complex. Biotin acceptor peptide (BAP) was fused to the N-terminus of PP1γ, which enables the biotinylation of the BAP-tagged protein in Sf9 insect cells. After purification the BAP-PP1γ protein was captured on a streptavidin sensor chip (SA-chip, GE healthcare) to a response level of ˜5.000 RU. Using controlled biotinylation enables orientated and uniform immobilization on the sensor chip surface. The PP1γ was then used to capture PPP1R15A/B and form a holophosphatase complex on the surface of the streptavidin chip. This complex can then be used to test binding of compounds. 10 μM PPP1R15A/B protein concentration was used to form the holophosphatase complex during a 80 s injection. […]

Assay [3] concerns the target T2, PPP1R15A-PP1 complex (Homo sapiens, UniProt O75807).
T2 construct: cDNAs encoding amino acids 325-636 of PPP1R15A and 340-698 of PPP1R15B were His-tagged and cloned into pMAL-c5x; made in house; host or cells: R15A: E. coli BL21-Gold (pMAL-c5x); PP1γ: Sf9 insect cells (baculovirus, pDW464)
Put plainly: SPR steady-state binding to R15A-PP1 holophosphatase. The conditions noted are these: SPR steady-state, MBP-R15A325-636-His captured on bio-PP1c, 10° C.; read-out: R15A (KD). As for the experimental part:
as §1, §2, §3, §4

T1 sequence (Q5SWA1 340-698): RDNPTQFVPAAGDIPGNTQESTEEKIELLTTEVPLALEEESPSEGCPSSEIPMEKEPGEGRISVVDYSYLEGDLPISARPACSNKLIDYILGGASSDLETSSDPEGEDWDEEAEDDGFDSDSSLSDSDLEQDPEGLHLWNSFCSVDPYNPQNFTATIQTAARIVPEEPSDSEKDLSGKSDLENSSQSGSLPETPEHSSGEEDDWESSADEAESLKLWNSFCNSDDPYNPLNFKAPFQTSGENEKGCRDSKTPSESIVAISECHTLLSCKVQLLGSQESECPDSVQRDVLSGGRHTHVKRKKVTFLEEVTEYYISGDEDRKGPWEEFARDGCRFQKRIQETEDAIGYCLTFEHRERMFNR
T1 sequence (P36873 whole entry partner, the tested form may be a part): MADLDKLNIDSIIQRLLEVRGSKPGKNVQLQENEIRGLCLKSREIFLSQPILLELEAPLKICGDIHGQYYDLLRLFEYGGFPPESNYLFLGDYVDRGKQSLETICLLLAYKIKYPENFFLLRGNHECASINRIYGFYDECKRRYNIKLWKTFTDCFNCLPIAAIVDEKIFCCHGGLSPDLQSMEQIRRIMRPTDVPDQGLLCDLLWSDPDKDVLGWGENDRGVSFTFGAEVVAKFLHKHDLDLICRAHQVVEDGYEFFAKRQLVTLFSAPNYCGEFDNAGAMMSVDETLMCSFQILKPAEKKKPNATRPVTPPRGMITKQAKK
T2 sequence (O75807 325-636): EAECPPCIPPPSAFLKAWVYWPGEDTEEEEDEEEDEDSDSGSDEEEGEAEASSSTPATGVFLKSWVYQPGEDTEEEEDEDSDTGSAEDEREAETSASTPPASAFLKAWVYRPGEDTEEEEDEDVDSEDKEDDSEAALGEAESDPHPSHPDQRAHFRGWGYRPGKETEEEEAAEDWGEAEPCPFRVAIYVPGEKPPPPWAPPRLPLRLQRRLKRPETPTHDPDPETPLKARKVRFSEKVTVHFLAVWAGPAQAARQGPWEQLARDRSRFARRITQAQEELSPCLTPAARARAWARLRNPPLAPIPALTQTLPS
T2 sequence (P36873 whole entry partner, the tested form may be a part): as the sequence (P36873 whole entry partner, the tested form may be a part) above

Turning to `[H]/N=C(\N)NN=Cc1ccc(Cl)nc1Cl` [Compound 22, (E)-2-((2,6-dichloropyridin-3-yl)methylene)hydrazine-1-carboximidamide], the “Selective binding towards R15A or R15B (based on SPR)” value in assay [1] was “R15AB (A PPP1R15A and PPP1R15B inhibitor may be defined as a compound where the difference in KD values between R15A and R15B is no more than about 3 fold)”. For the same molecule, the Kd (commonly the concentration at which binding is half-saturated) in assay [2] turned out to be 12.3 µM; in assay [3], 7.62 µM.

As to `[H]/N=C(\N)NN=Cc1cc(Cl)c(F)c(Cl)c1` [Compound 5, (E)-2-(3,5-dichloro-4-fluorobenzylidene)hydrazine-1-carboximidamide], the “Selective binding towards R15A or R15B (based on SPR)” value in assay [1] was “R15AB (A PPP1R15A and PPP1R15B inhibitor may be defined as a compound where the difference in KD values between R15A and R15B is no more than about 3 fold)”. Moreover, the Kd in assay [2] amounted to 2.67 ± 0.4 µM; in assay [3], 8.45 ± 0.41 µM.

On to `[H]/N=C(\N)NN=Cc1ccc(Cl)c(Cl)c1Cl` [Compound 6, (E)-2-(2,3,4-trichlorobenzylidene)hydrazine-1-carboximidamide], for which the “Selective binding towards R15A or R15B (based on SPR)” value in assay [1] is “R15AB (A PPP1R15A and PPP1R15B inhibitor may be defined as a compound where the difference in KD values between R15A and R15B is no more than about 3 fold)”. Also, the results for the Kd in assay [2] and in assay [3] were 9.09 ± 1.37 µM and 5.43 ± 1.1 µM, respectively.

Turning to `[H]/N=C(\N)NN=Cc1ccc(F)c(Cl)c1` [Compound 15, (E)-2-(3-chloro-4-fluorobenzylidene)hydrazine-1-carboximidamide], the “Selective binding towards R15A or R15B (based on SPR)” value in assay [1] is “R15AB (A PPP1R15A and PPP1R15B inhibitor may be defined as a compound where the difference in KD values between R15A and R15B is no more than about 3 fold)”. For the same molecule, the Kd in assay [2] came to 7.68 ± 2.18 µM; in assay [3], 11.2 µM.

On to `[H]/N=C(\N)NN=Cc1cccc(F)c1` [Compound 23, (E)-2-(3-fluorobenzylidene)hydrazine-1-carboximidamide], for which, in assay [1], the “Selective binding towards R15A or R15B (based on SPR)” value was “R15AB (A PPP1R15A and PPP1R15B inhibitor may be defined as a compound where the difference in KD values between R15A and R15B is no more than about 3 fold)”. Also, the Kd in assay [2] worked out at 1.05 ± 0.32 µM; in assay [3], 1.42 µM.

In the case of `[H]/N=C(\N)NN=Cc1cc(F)c(Cl)cc1Cl` [Compound 7, (E)-2-(2,4-dichloro-5-fluorobenzylidene)hydrazine-1-carboximidamide], in assay [1], the “Selective binding towards R15A or R15B (based on SPR)” value is “R15AB (A PPP1R15A and PPP1R15B inhibitor may be defined as a compound where the difference in KD values between R15A and R15B is no more than about 3 fold)”. For the same molecule, the Kd stood at 4.34 ± 2.35 µM in assay [2] and 10.2 ± 2.57 µM in assay [3].

Regarding `[H]/N=C(\N)NN=Cc1cc(Cl)cc(Cl)c1Cl` [Compound 10, (E)-2-(2,3,5-trichlorobenzylidene)hydrazine-1-carboximidamide], the “Selective binding towards R15A or R15B (based on SPR)” value in assay [1] is “R15AB (A PPP1R15A and PPP1R15B inhibitor may be defined as a compound where the difference in KD values between R15A and R15B is no more than about 3 fold)”. For the same molecule, the figures for the Kd in assay [2] and in assay [3] were 0.44 ± 0.09 µM and 0.391 ± 0.14 µM, respectively.

For `N=C(N)N/N=C/c1cc(Cl)c(Cl)cc1F` [Compound 18, (E)-2-(4,5-dichloro-2-fluorobenzylidene)hydrazine-1-carboximidamide], the “Selective binding towards R15A or R15B (based on SPR)” value in assay [1] was “R15AB (A PPP1R15A and PPP1R15B inhibitor may be defined as a compound where the difference in KD values between R15A and R15B is no more than about 3 fold)”. In addition, the Kd in assay [2] came to 4.85 ± 0.14 µM; in assay [3], 10.2 ± 1.62 µM.

As for `[H]/N=C(\N)NN=Cc1cccnc1Cl` [Compound 21, (E)-2-((2-chloropyridin-3-yl)methylene)hydrazine-1-carboximidamide], in assay [1], the “Selective binding towards R15A or R15B (based on SPR)” value is “R15AB (A PPP1R15A and PPP1R15B inhibitor may be defined as a compound where the difference in KD values between R15A and R15B is no more than about 3 fold)”. Also, the results for the Kd in assay [2] and in assay [3] were 0.537 µM and 0.832 µM, respectively.

`[H]/N=C(\N)NN=Cc1ccc(Cl)c(F)c1Cl` [Compound 13, (E)-2-(2,4-dichloro-3-fluorobenzylidene)hydrazine-1-carboximidamide]: the “Selective binding towards R15A or R15B (based on SPR)” value in assay [1] was “R15AB (A PPP1R15A and PPP1R15B inhibitor may be defined as a compound where the difference in KD values between R15A and R15B is no more than about 3 fold)”. Further, the values for the Kd in assay [2] and in assay [3] were 6.68 ± 2.34 µM and 4.62 ± 0.59 µM, respectively.

`[H]/N=C(\N)NN=Cc1ccc(Cl)cc1` [Compound 1, (E)-2-((4-chlorophenyl)methylene)hydrazine-1-carboximidamide]: the “Selective binding towards R15A or R15B (based on SPR)” value in assay [1] is “R15AB (A PPP1R15A and PPP1R15B inhibitor may be defined as a compound where the difference in KD values between R15A and R15B is no more than about 3 fold)”. Also, the dissociation constant Kd in assay [2] worked out at 7.33 ± 1.79 µM; in assay [3], 8.32 ± 0.14 µM.

On to `[H]/N=C(\N)NN=Cc1cccc(Cl)c1F` [Compound 30, (E)-2-(3-chloro-2-fluorobenzylidene)hydrazine-1-carboximidamide], for which, in assay [1], the “Selective binding towards R15A or R15B (based on SPR)” value is “R15AB (A PPP1R15A and PPP1R15B inhibitor may be defined as a compound where the difference in KD values between R15A and R15B is no more than about 3 fold)”. Moreover, the Kd in assay [2] was found to be 12.3 ± 0.6 µM; in assay [3], 5.15 ± 1.7 µM.

Source of the values: US11154519B2, “Inhibitors and their uses” (MEDICAL RESEARCH COUNCIL, priority 2015, dated 2021).
